Where “and” joins values, the source holds several entries; their conditions need not be identical. Equal entries are not always repeated.
Experiments:
[1] = tested on: alloxan-induced diabetic rats; test: Blood glucose level in alloxan-induced diabetes model; type: in vivo, Wistar female rats; settings: mean ± SD; for Blood glucose (BG) level, mean: alloxan-induced diabetic rats, oral gavage daily for 5 weeks, metformin 300 mg/kg/day, S 150 mg/kg/day, sage extract 150 mg/kg/day; for Average blood glucose reduction (pre- vs post-treatment): end of week 3 vs end of week 8, oral daily 5 weeks, metformin 300, S 150, sage 150 mg/kg/day
Protocol: The in vivo experiment was conducted using Wistar female rats, obtained through the “Grigore T. Popa” University of Medicine and Pharmacy (UMF) Iași, from the Cantacuzino Institute in Bucharest, Romania. Throughout the experimental period, the animals were housed at the CEMEX biobase, within the UMF “Grigore T. Popa” Iași. […] Female rats were selected in alignment with the broader research objective focused on diabetes-induced alterations of the female reproductive system.
Following a 7-day acclimatization period, diabetes was induced in groups 2–6 by a single intraperitoneal injection of alloxan at a dose of 150 mg/kg body weight.
Blood glucose (BG) was assessed 5 days post-administration using peripheral tail vein blood. A threshold of 200 mg/dL was used to confirm severe hyperglycemia. […] The end of week 3 thus marked the point of confirmed diabetes and the onset of pharmacological interventions. […] The full experimental timeline extended over 8 weeks.
To minimize potential confounders, all experimental procedures—including compound administration and blood glucose level measurements— were performed at the same time of day for all animals. Blood glucose (BG) levels were monitored weekly using a portable glucometer (tail vein blood).
To quantify the hypoglycemic effect of the applied treatments, the percentage decrease in blood glucose was calculated based on pre- and post-treatment values using the following formula: Absolute decrease in blood glucose %=blood glucose (pre−treatment)−blood glucose (post−treatment)/blood glucose (pre−treatment)×100

[2] = parameters: method as in earlier work; settings: rats, ref 42 (Choi et al. 2006); cited from earlier work
[3] = Plasma steady-state concentration by HPLC and volume of distribution; settings: female, Wistar, rat, oral, 300 mg/kg/day, rats, oral daily dosing 5 weeks, HPLC, metformin 300 mg/kg/day, S 150 mg/kg/day
Protocol: At the end of the experimental period, blood samples were collected from the retro-orbital plexus under ketamine anesthesia (75 mg/kg body weight). Samples were collected into EDTA-coated tubes and stored at −20 °C until biochemical analyses were performed. Finally, the animals were humanely euthanized using Thiopental 0.01%.
Extraction of the target compounds from whole blood samples was performed using a liquid–liquid extraction method, with dichloromethane as the organic solvent (sample: solvent ratio 1:2). The extraction was carried out under acidic conditions (pH 3, using 4% acetic acid). Following centrifugation, the organic phase was evaporated under a stream of high-purity nitrogen gas at 40 °C (Thermo Scientific, Bremen, Germany). The resulting dry residue was reconstituted in 500 µL of 10% methanol in water.
Separation was achieved on a 150-4.6 LiChrospher®RP-18, 5 µm, column (Merck, Darmstadt, Germany). […] The flow rate was set to 1.0 mL/min, and the total run time for each analysis was 30 min.
The volume of distribution at steady state (Vd) was calculated using the following formula: Vd=D/Css(L) where D represents the administered dose, calculated individually based on each animal’s body weight (mg/kg), and Css is the steady-state plasma concentration (mg/L).

Row | concentration at 5 weeks ([3]; Average plasma concentration (steady state), mean ± SD) | concentration at 5 weeks ([3]; Plasma concentration, range) | Molecule | Blood glucose (BG) level, mean [1] | Average blood glucose reduction (pre- vs post-treatment) [1] | Fraction of oral dose subject to gastrointestinal and hepatic first-pass effects [2]
1 | – | – | N-(diaminomethylene)-4-methylbenzenesulfonamide | 236.0 ± 94.70 mg/dL | 40.6% and 40.95 ± 15.94% | –
2 | 5320 ± 1580 ng/mL | 3170 to 7540 ng/mL | CN(C)C(=N)N=C(N)N [metformin] | 224.8 ± 192.78 mg/dL | 36.4% and 36.46 ± 32.5% and 36.46% | approximately 65%

From publication PMC12297955, “Comparative Study: Biguanide-, Sulfonamide-, and Natural Agent-Based Interventions in an In Vivo Experimental Diabetes Model” (Medicina, 2025)
